This passage reports EC50 results from US20170121344A1 (Siga Technologies, Inc., priority 2009, published 2017).

The first assay concerns Dengue-2 (Strain New Guinea C). The assay is described as follows: Viral yield assay against Dengue-2 in Vero cells. The format is cell-based, Dengue virus. Particulars: Dengue virus, DENV2, Vero, 48 h, read-out: Activity (EC50 in μM) DENV-2. The gist of the method: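 Vero cells were infected with dengue virus at an MOI of 0.1, treated with compound or DMSO vehicle, and kept at 37° C. Supernatant virus was harvested 48 hours post infection and titered on Vero cells, with EC50 derived from yield reduction.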
On to `Nc1c(C(=O)N2CCC[C@H]2C(=O)O)sc2nc(-c3cccs3)ccc12` [Compound 484, 1-[3-amino-6-(2-thienyl)thieno[2,3-b]pyridine-2-carbonyl]pyrrolidine-2-carboxylic acid], for which the EC50 – broadly, the midpoint of the concentration-response curve – was < 5 µM.

`COc1cccc(-c2ccc3c(N)c(C(=O)Nc4ccc(OC)c(OC)c4)sc3n2)c1` [Compound 508, 3-amino-N-(3,4-dimethoxyphenyl)-6-(3-methoxyphenyl)thieno[2,3-b]pyridine-2-carboxamide]: the EC50 was < 5 µM.

For the compound `COc1cccc(-c2ccc3c(N)c(C(=O)Nc4ccc(C(C)=O)cc4)sc3n2)c1` [Compound 513, N-(4-acetylphenyl)-3-amino-6-(3-methoxyphenyl)thieno[2,3-b]pyridine-2-carboxamide], the EC50 was < 5 µM.

The same assay, now with this note: Dengue virus, DENV2; viral yield assay, Vero cells, MOI 0.1, 48 hours post infection; read-out: Activity (EC50 in μM) DENV-2.
For the compound `Nc1c(C(=O)Nc2cccc(Br)c2)sc2nc(-c3ccncc3)ccc12` [Compound 481, 3-amino-N-(3-bromophenyl)-6-(4-pyridyl)thieno[2,3-b]pyridine-2-carboxamide], the EC50 lay within 5 to 25 µM.

`Nc1c(C(=O)Nc2ccccc2OC(F)(F)F)sc2nc(-c3ccncc3)ccc12` [Compound 487, 3-amino-6-(4-pyridyl)-N-[2-(trifluoromethoxy)phenyl]thieno[2,3-b] pyridine-2-carboxamide]: the EC50 was < 5 µM.

Turning to `COc1cccc(-c2ccc3c(N)c(C(=O)Nc4cc(OC)ccc4OC)sc3n2)c1` [Compound 496, 3-amino-N-(2,5-dimethoxyphenyl)-6-(3-methoxyphenyl)thieno[2,3-b]pyridine-2-carboxamide], the concentration for a half-maximal effect (EC50) is < 5 µM.

Regarding `COc1cccc(-c2ccc3c(N)c(C(=O)Nc4ccc5c(c4)OCCO5)sc3n2)c1` [Compound 499, 3-amino-N-(2,3-dihydor-1,4-benzodioxin-6-yl)-6-(3-methoxyphenyl)thieno[2,3-b] pyridine-2-carboxamide], the EC50 was < 5 µM.

On to `COc1ccc(NC(=O)c2sc3nc(-c4ccc(OC)c(OC)c4)ccc3c2N)c(C)c1` [Compound 500, 3-amino-6-(3,4-dimethoxyphenyl)-N-(4-methoxy-2-methyl-phenyl)thieno[2,3-b] pyridine-2-carboxamide], for which the EC50 is < 5 µM.

As to `CCOc1ccccc1NC(=O)c1sc2nc(-c3cccc(OC)c3)ccc2c1N` [Compound 501, 3-amino-N-(2-ethoxyphenyl)-6-(3-methoxyphenyl)thieno[2,3-b]pyridine-2-carboxamide], the EC50 was < 5 µM.

In the case of `COc1cccc(-c2ccc3c(N)c(C(=O)Nc4ccc(F)cc4F)sc3n2)c1` [Compound 502, 3-amino-N-(2,4-difluorophenyl)-6-(3-methoxyphenyl)thieno[2,3-b]pyridine-2-carboxamide], the EC50 is < 5 µM.

On to `COc1cccc(NC(=O)c2sc3nc(-c4cccc(OC)c4)ccc3c2N)c1` [Compound 503, 3-amino-N,6-bis(3-methoxyphenyl) thieno[2,3-b]pyridine-2-carboxamide], for which the EC50 was < 5 µM.

Take `COc1cccc(-c2ccc3c(N)c(C(=O)Nc4ccccc4OC)sc3n2)c1` [Compound 504, 3-amino-N-(2-methoxyphenyl)-6-(3-methoxyphenyl)thieno[2,3-b]pyridine-2-carboxamide]: the EC50 is < 5 µM.

For the compound `COc1cccc(-c2ccc3c(N)c(C(=O)Nc4cccc(SC)c4)sc3n2)c1` [Compound 505, 3-amino-6-(3-methoxyphenyl)-N-(3-methylsulfanylphenyl)thieno[2,3-b] pyridine-2-carboxamide], the concentration for a half-maximal effect (EC50) is < 5 µM.

As to `CCOc1ccccc1NC(=O)c1sc2nc(-c3ccc(OC)c(OC)c3)ccc2c1N` [Compound 509, 3-amino-6-(3,4-dimethoxyphenyl)-N-(2-ethoxyphenyl)thieno[2,3-b]pyridine-2-carboxamide], the EC50 is < 5 µM.

Regarding `COc1cccc(-c2ccc3c(N)c(C(=O)Nc4ccc5c(c4)OCO5)sc3n2)c1` [Compound 511, 3-amino-N-(1,3-benzodioxol-5-yl)-6-(3-methoxyphenyl)thieno[2,3-b]pyridine-2-carboxamide], the EC50 was < 5 µM.

Take `COc1cccc(-c2ccc3c(N)c(C(=O)Nc4cccc(F)c4C)sc3n2)c1` [Compound 515, 3-amino-N-(3-fluoro-2-methyl-phenyl)-6-(3-methoxyphenyl)thieno[2,3-b] pyridine-2-carboxamide]: the EC50 is < 5 µM.

Take `COc1cccc(-c2ccc3c(N)c(C(=O)Nc4cc(F)ccc4F)sc3n2)c1` [Compound 516, 3-amino-N-(2,5-difluorophenyl)-6-(3-methoxyphenyl)thieno[2,3-b]pyridine-2-carboxamide]: the EC50 is < 5 µM.

In the case of `CCOc1ccccc1NC(=O)c1sc2nc(-c3ccc4c(c3)OCO4)ccc2c1N` [Compound 517, 3-amino-6-(1,3-benzodioxol-5-yl)-N-(2-ethoxyphenyl)thieno[2,3-b]pyridine-2-carboxamide], the EC50 was < 5 µM.

Regarding `COc1ccc(OC)c(NC(=O)c2sc3nc(-c4ccc(OC)c(OC)c4)ccc3c2N)c1` [Compound 518, 3-amino-N-(2,5-dimethoxyphenyl)-6-(3,4-dimethoxyphenyl)thieno[2,3-b]pyridine-2-carboxamide], the concentration for a half-maximal effect (EC50) is < 5 µM.

Consider `COc1cccc(-c2ccc3c(N)c(C(=O)Nc4ccc(Cl)cc4F)sc3n2)c1` [Compound 519, 3-amino-N-(4-chloro-2-fluoro-phenyl)-6-(3-methoxyphenyl)thieno[2,3-b]pyridine-2-carboxamide], for which the EC50 is < 5 µM.

Turning to `COc1cccc(-c2ccc3c(N)c(C(=O)Nc4cc(OC)c(OC)c(OC)c4)sc3n2)c1` [Compound 520, 3-amino-6-(3-methoxyphenyl)-N-(3,4,5-trimethoxyphenyl)thieno[2,3-b]pyridine-2-carboxamide], the EC50 was < 5 µM.

For `COc1cccc(-c2ccc3c(N)c(C(=O)Nc4ccccc4C)sc3n2)c1` [Compound 521, 3-amino-6-(3-methoxyphenyl)-N-(o-tolyl)thieno[2,3-b]pyridine-2-carboxamide], the EC50 is < 5 µM.

In the case of `COc1cccc(-c2ccc3c(N)c(C(=O)Nc4ccc(C)c(F)c4)sc3n2)c1` [Compound 523, 3-amino-N-(3-fluoro-4-methyl-phenyl)-6-(3-methoxyphenyl)thieno[2,3-b] pyridine-2-carboxamide], the EC50 is < 5 µM.

On to `COc1ccc(-c2ccc3c(N)c(C(=O)Nc4cc(C)ccc4C)sc3n2)cc1OC` [Compound 524, 3-amino-6-(3,4-dimethoxyphenyl)-N-(2,5-dimethylphenyl)thieno[2,3-b]pyridine-2-carboxamide], for which the concentration for a half-maximal effect (EC50) is < 5 µM.

Consider `COc1cccc(-c2ccc3c(N)c(C(=O)Nc4ccc(F)c(F)c4)sc3n2)c1` [Compound 525, 3-amino-N-(3,4-difluorophenyl)-6-(3-methoxyphenyl)thieno[2,3-b]pyridine-2-carboxamide], for which the 50% effective concentration (EC50) was < 5 µM.

Turning to `COc1cccc(-c2ccc3c(N)c(C(=O)Nc4ccc(F)c(Cl)c4)sc3n2)c1` [Compound 526, 3-amino-N-(3-chloro-4-fluoro-phenyl)-6-(3-methoxyphenyl)thieno[2,3-b] pyridine-2-carboxamide], the EC50 is < 5 µM.

For the compound `COc1ccc(NC(=O)c2sc3nc(-c4ccc(Cl)cc4)ccc3c2N)cc1` [Compound 527, 3-amino-6-(4-chlorophenyl)-N-(4-methoxyphenyl)thieno[2,3-b]pyridine-2-carboxamide], the EC50 is < 5 µM.
